Assay results taken from ChEMBL document CHEMBL5505979, “Novel aminothiazoximone-corbelled ethoxycarbonylpyrimidones with antibiofilm activity to conquer Gram-negative bacteria through potential multitargeting effects” (Eur J Med Chem, 2024).
≈ marks a conversion by molar mass, not a printed value. Calls of active or inactive are those of the source. The rule behind the calls is not given here.

How the values were obtained:
[1] = test system: Acinetobacter baumannii; test: Antibiofilm activity against Acinetobacter baumannii assessed as clearance rate of mature biofilm at 8 times of MIC concentration relative to control; assay type: functional
[2] = test system: Escherichia coli; test: Anti-bacterial activity against Escherichia coli ATCC 25922 assessed as growth inhibition by measuring optical density measured at 1/4 time of MIC in presence of 2 times of MIC of norfloxacin by Checkerboard assay (reference value: 0.128); assay type: functional
[3] = test system: Acinetobacter baumannii; test: Anti-bacterial activity against Acinetobacter baumannii assessed as growth inhibition by measuring optical density measured at 4 time of MIC in presence of 1/2 times of MIC of norfloxacin by Checkerboard assay (reference value: 0.152); assay type: functional
[4] = test system: Escherichia coli; test: Anti-bacterial activity against Escherichia coli ATCC 25922 assessed as growth inhibition by measuring optical density measured at 1 time of MIC in presence of 1/8 times of MIC of norfloxacin by Checkerboard assay (reference value: 0.125); assay type: functional
[5] = test system: Staphylococcus aureus; test: Anti-bacterial activity against Staphylococcus aureus CMCC (B) 26003 assessed as inhibition of bacterial growth; assay type: functional
[6] = test system: Escherichia coli; test: Induction of intracellular ROS accumulation in Escherichia coli ATCC 25922 assessed as fluorescence intensity at 1/4 to 2 times of MIC by DCFH-DA staining based assay; assay type: functional, organism-based
[7] = test system: Escherichia coli; test: Anti-bacterial activity against Escherichia coli ATCC 25922 assessed as growth inhibition by measuring optical density measured at 1/2 time of MIC in presence of 1/2 times of MIC of norfloxacin by Checkerboard assay (reference value: 0.124); assay type: functional
[8] = test system: Escherichia coli; test: Anti-bacterial activity against Escherichia coli JM109 assessed as inhibition of bacterial growth; assay type: functional
[9] = test system: Candida albicans; test: Anti-fungal activity against Candida albicans assessed as inhibition of fungal growth; assay type: functional; conditions: Candida albicans; read-out: MIC
[10] = test system: Escherichia coli; test: Anti-bacterial activity against Escherichia coli ATCC 25922 assessed at fractional inhibitory concentration index measured upto 9 hrs in presence of norfloxacin; assay type: functional
[11] = test system: Acinetobacter baumannii; test: Reduction of biofilm virulent factors in Acinetobacter baumannii assessed as decrease in hydrophobicity index; assay type: functional, organism-based
[12] = test system: Escherichia coli; test: Reduction of biofilm virulent factors in Escherichia coli ATCC 25922 assessed as decrease in extracellular polymeric substances (EPS) by measuring optical density at 490 nm at 4 times of MIC concentration by congo red binding assay (reference value: 0.028 to 0.031); assay type: functional
[13] = test system: Escherichia coli; test: Anti-bacterial activity against Escherichia coli ATCC 25922 assessed as inhibition of bacterial growth measured after 20 passages at sub-MIC concentration by multiple resistance study; assay type: functional, organism-based
[14] = test system: Candida tropicalis; test: Anti-fungal activity against Candida tropicalis assessed as inhibition of fungal growth; assay type: functional; conditions: Candida tropicalis; read-out: MIC
[15] = test system: Escherichia coli; test: Anti-bacterial activity against Escherichia coli ATCC 25922 assessed as growth inhibition by measuring optical density measured at 4 time of MIC in presence of 2 times of MIC of norfloxacin by Checkerboard assay (reference value: 0.125); assay type: functional
[16] = test system: Acinetobacter baumannii; test: Reduction of biofilm virulent factors in Acinetobacter baumannii assessed as decrease in extracellular polymeric substances (EPS) by measuring optical density at 490 nm at 1/2 times of MIC concentration by congo red binding assay (reference value: 0.188 to 0.192); assay type: functional
[17] = test system: Acinetobacter baumannii; test: Antibiofilm activity against Acinetobacter baumannii assessed as reduction of self-aggregation; assay type: functional, organism-based
[18] = test system: Escherichia coli; test: Reduction of biofilm virulent factors in Escherichia coli ATCC 25922 assessed as decrease in extracellular polymeric substances (EPS) by measuring optical density at 490 nm at 2 times of MIC concentration by congo red binding assay (reference value: 0.028 to 0.031); assay type: functional
[19] = test system: Acinetobacter baumannii; test: Induction of ROS accumulation in Acinetobacter baumannii assessed as decrease in GSH activity by measuring reduced GSH to convert to oxidized GSSG at 1/4 to 2 times of MIC by Ellmans method; assay type: functional, organism-based
[20] = test system: Escherichia coli; test: Reduction in metabolic activity of Escherichia coli ATCC 25922 at MIC concentration relative to control; assay type: functional; parameters: scale not given: the % may be the effect or the level left
[21] = test system: Acinetobacter baumannii; test: Antibiofilm activity against Acinetobacter baumannii assessed as decrease in biofilm formation at MIC concentration relative to control; assay type: functional; parameters: scale not given: the % may be the effect or the level left
[22] = test system: Acinetobacter baumannii; test: Antibiofilm activity against Acinetobacter baumannii assessed as inhibition rate of bio-film formation at 0.5 times of MIC concentration by Crystal violet assay relative to control; assay type: functional
[23] = test system: Acinetobacter baumannii; test: Anti-bacterial activity against Acinetobacter baumannii assessed as fractional inhibitory concentration index measured upto 9 hrs in presence of norfloxacin; assay type: functional
[24] = test system: Acinetobacter baumannii; test: Antibiofilm activity against Acinetobacter baumannii assessed as inhibition rate of bio-film formation at 8 times of MIC concentration by Crystal violet assay relative to control; assay type: functional
[25] = test system: Escherichia coli; test: Bactericidal activity against Escherichia coli ATCC 25922 assessed as bacterial killing at 1 to 8 times of MIC concentration measured upto 8 hrs by time-kill kinetics assay; assay type: functional, organism-based
[26] = test system: Staphylococcus aureus; test: Anti-bacterial activity against Staphylococcus aureus ATCC 25923 assessed as inhibition of bacterial growth; assay type: functional; conditions: Staphylococcus aureus, ATCC 25923; read-out: MIC
[27] = test system: Acinetobacter baumannii; test: Anti-bacterial activity against Acinetobacter baumannii assessed as growth inhibition by measuring optical density measured at 1 time of MIC in presence of 1/4 times of MIC of norfloxacin by Checkerboard assay (reference value: 0.157); assay type: functional
[28] = test system: Acinetobacter baumannii; test: Anti-bacterial activity against Acinetobacter baumannii assessed as growth inhibition by measuring optical density measured at 1 time of MIC in presence of 1/2 times of MIC of norfloxacin by Checkerboard assay (reference value: 0.157); assay type: functional
[29] = test system: Staphylococcus aureus; test: Anti-bacterial activity against Staphylococcus aureus ATCC 12600 assessed as inhibition of bacterial growth; assay type: functional; conditions: Staphylococcus aureus, ATCC 12600; read-out: MIC
[30] = test system: Escherichia coli; test: Anti-bacterial activity against Escherichia coli ATCC 25922 assessed as growth inhibition by measuring optical density measured at 1/4 time of MIC in presence of 1 times of MIC of norfloxacin by Checkerboard assay (reference value: 0.128); assay type: functional
[31] = test system: Acinetobacter baumannii; test: Anti-bacterial activity against Acinetobacter baumannii assessed as growth inhibition by measuring optical density measured at 4 time of MIC in presence of 1 times of MIC of norfloxacin by Checkerboard assay (reference value: 0.152); assay type: functional
[32] = test system: Escherichia coli; test: Anti-bacterial activity against Escherichia coli ATCC 25922 assessed as growth inhibition by measuring optical density measured at 1/4 time of MIC in presence of 1/8 times of MIC of norfloxacin by Checkerboard assay (reference value: 0.128); assay type: functional
[33] = test system: Escherichia coli; test: Antibiofilm activity against Escherichia coli ATCC 25922 assessed as clearance rate of mature biofilm at MIC concentration relative to control; assay type: functional
[34] = test system: Enterococcus faecalis; test: Anti-bacterial activity against Enterococcus faecalis V583 assessed as inhibition of bacterial growth; assay type: functional
[35] = test system: Escherichia coli; test: Anti-bacterial activity against Escherichia coli ATCC 25922 assessed as growth inhibition by measuring optical density measured at 2 time of MIC in presence of 1/4 times of MIC of norfloxacin by Checkerboard assay (reference value: 0.128); assay type: functional
[36] = test system: Escherichia coli; test: Reduction in metabolic activity of Escherichia coli ATCC 25922 assessed as biomass of the fluorescent pink change to non-fluorescent blue; assay type: functional, organism-based

CCCCc1nc(Cl)c(C2NC(=O)NC(CN3CCN(C(=O)/C(=N/OC)c4csc(N)n4)CC3)=C2C(=O)OCC)[nH]1 (stereo unspecified)
Activity [1]: 42.6% | OD [2]: 0.078 | OD [3]: 0.05 | OD [4]: 0.121 | MIC [5]: 26 µM (≈ 15.8 µg/mL) | Activity [6]: Active | OD [7]: 0.107 | MIC [8]: 13 µM (≈ 7.91 µg/mL) | MIC [9]: 422 µM (≈ 257 µg/mL) | fractional inhibitory concentration index (FICI) [10]: 0.75 | Activity [11]: Dose-Dependent Effect | OD [12]: 0.061 | Activity [13]: Active | MIC [14]: 53 µM (≈ 32.2 µg/mL) | OD [15]: 0.051 | OD [16]: 0.173 | Activity [17]: Dose-Dependent Effect | OD [18]: 0.068 | Activity [19]: Active | Activity [20]: 63.6% | Activity [21]: 18.6% | inhibition (INH) [22]: 23.5% | fractional inhibitory concentration index (FICI) [23]: 0.75 | inhibition (INH) [24]: >70.2% | Activity [25]: Active | MIC [26]: 7 µM (≈ 4.26 µg/mL) | OD [27]: 0.109 | OD [28]: 0.106 | MIC [29]: 7 µM (≈ 4.26 µg/mL) | OD [30]: 0.112 | OD [31]: 0.051 | OD [32]: 0.122 | Activity [33]: 37.7% | MIC [34]: 13 µM (≈ 7.91 µg/mL) | OD [35]: 0.102 | Activity [36]: Active
